Source: PubChem BioAssay AID280 (DTP/NCI, 2004)
Several values for one entry are separate records, joined by “and”; a condition that tells them apart may be missing. Equal entries are not always repeated. Toxic doses and inconclusive results are not listed.

System: nude mice, LOX melanoma ip, survival T/C
Assay: NCI In Vivo Anticancer Drug Screen. Data for tumor model Human Amelanotic Melanoma (LOX) (intraperitoneal) in NU/NU BALB/C (nude) mice
Conditions: endpoint: median survival time, schedule: Q04DX003 (ip), higher = longer survival
Procedure: The antitumor activity of compounds was measured in mice bearing transplantable tumors. Survival or tumor size were measured and the results are expressed as the measurement made in the treated group (T) divided by the measurement made in the vehicle treated control group (C). The tumor model used in this assay is Human Amelanotic Melanoma (LOX) (intraperitoneal) in NU/NU BALB/C (nude) mice

[1] = dose: 18.75 mg/kg/injection, vehicle: Klucel (hydroxypropylcellulose) (HPC)
[2] = dose: 37.5 mg/kg/injection, vehicle: Klucel (hydroxypropylcellulose) (HPC)
[3] = dose: 75.0 mg/kg/injection, vehicle: Klucel (hydroxypropylcellulose) (HPC)
[4] = dose: 150.0 mg/kg/injection, vehicle: Klucel (hydroxypropylcellulose) (HPC)
[5] = dose: 25.0 mg/kg/injection, vehicle: saline with Tween-80
[6] = dose: 50.0 mg/kg/injection, vehicle: saline with Tween-80
[7] = dose: 200.0 mg/kg/injection, vehicle: saline with Tween-80
[8] = dose: 100.0 mg/kg/injection, vehicle: saline with Tween-80
[9] = dose: 75.0 mg/kg/injection, vehicle: saline with Tween-80
[10] = dose: 300.0 mg/kg/injection, vehicle: saline with Tween-80
[11] = dose: 300.0 mg/kg/injection, vehicle: Klucel (hydroxypropylcellulose) (HPC)
[12] = dose: 600.0 mg/kg/injection, vehicle: Klucel (hydroxypropylcellulose) (HPC)
[13] = dose: 12.5 mg/kg/injection, vehicle: saline with Tween-80

N/C(=N\OC(=O)Nc1ccc(CSc2ccc(Cl)cc2)o1)c1ccccn1
T/C [1]: 97 % of control | T/C [2]: 97 % of control | T/C [3]: 92 % of control | T/C [4]: 102 % of control

CC1Oc2cc3c(-c4c(O)cc(O)c5c(O)c6c(cc45)OC(C)C(C)C6=O)c(O)cc(O)c3c(O)c2C(=O)C1C (stereo not given)
T/C (dose: 1.0 mg/kg/injection, vehicle: suspension in saline): 124 % of control | T/C (dose: 4.0 mg/kg/injection, vehicle: suspension in saline): 152 % of control

NC(Cc1ccc(N(CCCl)Cc2ccccc2)cc1)C(=O)O (stereo not given)
T/C [5]: 107 % of control | T/C [6]: 124 % of control | T/C [7]: 158 % of control and 163 % of control

CC(CNC(=O)C12CC3CC(CC(C3)C1)C2)NC(=O)C12CC3CC(CC(C3)C1)C2 (stereo not given)
T/C (dose: 25.0 mg/kg/injection, vehicle: DMSO): 101 % of control | T/C (dose: 50.0 mg/kg/injection, vehicle: DMSO): 107 % of control | T/C (dose: 100.0 mg/kg/injection, vehicle: DMSO): 101 % of control | T/C (dose: 200.0 mg/kg/injection, vehicle: DMSO): 102 % of control

[N-]=[N+]=[N-]
T/C (dose: 1.5 mg/kg/injection, vehicle: water): 99 % of control | T/C (dose: 3.0 mg/kg/injection, vehicle: water): 104 % of control | T/C (dose: 12.0 mg/kg/injection, vehicle: water): 89 % of control | T/C (dose: 24.0 mg/kg/injection, vehicle: water): 104 % of control

COc1ccc(N=N/N=c2\sc3cc(OC)ccc3n2C)cc1
T/C (dose: 15.0 mg/kg/injection, vehicle: saline with Tween-80): 121 % of control | T/C (dose: 30.0 mg/kg/injection, vehicle: saline with Tween-80): 117 % of control | T/C (dose: 120.0 mg/kg/injection, vehicle: saline with Tween-80): 121 % of control

CCCCCC1c2cc(O)ccc2OC1N1CCOCC1 (stereo not given)
T/C [5]: 111 % of control | T/C [6]: 100 % of control | T/C [7]: 86 % of control

CC(=O)C[n+]1ccccc1Sc1ccc(Cl)cc1
T/C (dose: 1.5 mg/kg/injection, vehicle: saline with Tween-80): 95 % of control | T/C (dose: 3.0 mg/kg/injection, vehicle: saline with Tween-80): 94 % of control | T/C (dose: 6.0 mg/kg/injection, vehicle: saline with Tween-80): 99 % of control | T/C (dose: 12.0 mg/kg/injection, vehicle: saline with Tween-80): 96 % of control | T/C (dose: 24.0 mg/kg/injection, vehicle: saline with Tween-80): 95 % of control

O=C(C/C(=N\C(=S)Nc1cc(C(F)(F)F)ccc1Cl)NO)N1CCCC1
T/C [6]: 115 % of control | T/C [8]: 96 % of control | T/C [7]: 108 % of control

CN(C)CN1C(=O)S/C(=C2\C(=O)N(CN(C)C)c3ccccc32)C1=O
T/C (dose: 50.0 mg/kg/injection, vehicle: Klucel (hydroxypropylcellulose) (HPC)): 119 % of control and 101 % of control | T/C (dose: 100.0 mg/kg/injection, vehicle: Klucel (hydroxypropylcellulose) (HPC)): 110 % of control and 97 % of control | T/C (dose: 200.0 mg/kg/injection, vehicle: Klucel (hydroxypropylcellulose) (HPC)): 108 % of control and 97 % of control

CC1C(c2ccccc2)OC(N2CCOCC2)C(C)(C)CN1C (stereo not given)
T/C [9]: 105 % of control | T/C (dose: 150.0 mg/kg/injection, vehicle: saline with Tween-80): 93 % of control | T/C [10]: 90 % of control

CC(C)(C)c1ccc(C(=O)N2CCOC23CCCCC3)cc1
T/C [3]: 98 % of control | T/C [4]: 95 % of control | T/C [11]: 92 % of control | T/C [12]: 107 % of control | T/C (dose: 1200.0 mg/kg/injection, vehicle: Klucel (hydroxypropylcellulose) (HPC)): 107 % of control

C/C(=N\NC(=S)N1CC2CCC(CC2)C1)c1cccc(C)n1
T/C (dose: 6.25 mg/kg/injection, vehicle: saline with Tween-80): 105 % of control | T/C [13]: 109 % of control | T/C [5]: 103 % of control | T/C [6]: 120 % of control | T/C [8]: 109 % of control

[CH3][Sn]([CH3])([Cl])[c]1cc[c]([Sn]([CH3])([CH3])[Cl])cc1
T/C (dose: 0.63 mg/kg/injection, vehicle: saline): 91 % of control | T/C (dose: 1.25 mg/kg/injection, vehicle: saline): 103 % of control | T/C (dose: 2.5 mg/kg/injection, vehicle: saline): 98 % of control | T/C (dose: 5.0 mg/kg/injection, vehicle: saline): 107 % of control

COc1cc2c(cc1OC)[C@@H]1C(=O)c3ccc4c(c3O[C@@H]1CO2)C[C@H](C(C)C)O4
T/C [1]: 113 % of control | T/C [2]: 110 % of control

CN(C)N=Nc1ccc(C(N)=O)cc1
T/C (dose: 22.5 mg/kg/injection, vehicle: saline with Tween-80): 99 % of control | T/C (dose: 45.0 mg/kg/injection, vehicle: saline with Tween-80): 120 % of control | T/C (dose: 180.0 mg/kg/injection, vehicle: saline with Tween-80): 153 % of control | T/C (dose: 360.0 mg/kg/injection, vehicle: saline with Tween-80): 210 % of control

C=CCNC(=O)c1ccccc1SC(C)=O
T/C (dose: 37.5 mg/kg/injection, vehicle: saline with Tween-80): 100 % of control | T/C [9]: 95 % of control | T/C [10]: 93 % of control

O=C(CN1CCOCC1)Nc1nc(-c2ccc(Cl)cc2)cs1
T/C (dose: 75.0 mg/kg/injection, vehicle: DMSO): 119 % of control | T/C (dose: 150.0 mg/kg/injection, vehicle: DMSO): 112 % of control | T/C (dose: 300.0 mg/kg/injection, vehicle: DMSO): 88 % of control | T/C (dose: 600.0 mg/kg/injection, vehicle: DMSO): 95 % of control | T/C (dose: 1200.0 mg/kg/injection, vehicle: DMSO): 92 % of control

CCCCNP1(NCCCC)=NP(NCCCC)(NCCCC)=NP(NCCCC)(NCCCC)=NP(NCCCC)(NCCCC)=N1
T/C (dose: 32.4 mg/kg/injection, vehicle: saline with Tween-80): 116 % of control | T/C (dose: 54.0 mg/kg/injection, vehicle: saline with Tween-80): 105 % of control and 98 % of control | T/C [9]: 113 % of control | T/C (dose: 90.0 mg/kg/injection, vehicle: saline with Tween-80): 105 % of control and 120 % of control

CCOC(=O)/C=C/C(=O)N1CCN(C(=O)/C=C/C(=O)OCC)C(C)C1 (stereo not given)
T/C [3]: 117 % of control | T/C [4]: 109 % of control | T/C [11]: 108 % of control | T/C [12]: 116 % of control

CC1c2ccccc2CC(CCN(C)C)c2ccccc21 (stereo not given)
T/C [13]: 109 % of control | T/C [5]: 114 % of control | T/C [6]: 114 % of control | T/C [8]: 109 % of control

N=C(N)SCc1cccc2c(=O)cc(-c3ccccc3)oc12
T/C (dose: 25.0 mg/kg/injection, vehicle: suspension in saline): 101 % of control | T/C (dose: 50.0 mg/kg/injection, vehicle: suspension in saline): 111 % of control | T/C (dose: 100.0 mg/kg/injection, vehicle: suspension in saline): 118 % of control | T/C (dose: 400.0 mg/kg/injection, vehicle: suspension in saline): 124 % of control

Cc1nc(C(Cl)(Cl)Cl)[nH]c(=O)c1SCCO
T/C (dose: 75.0 mg/kg/injection, vehicle: distilled water + Tween-80 + alcohol): 102 % of control | T/C (dose: 150.0 mg/kg/injection, vehicle: distilled water + Tween-80 + alcohol): 116 % of control | T/C (dose: 300.0 mg/kg/injection, vehicle: distilled water + Tween-80 + alcohol): 101 % of control | T/C (dose: 600.0 mg/kg/injection, vehicle: distilled water + Tween-80 + alcohol): 117 % of control
